Assay [1] has as its target T1, Ras farnesyl transferase (Rattus norvegicus, UniProt Q02293+Q04631).
T1 construct: endogenous in cells; host or cells: Rat2 fibroblasts transformed with C-Harvey-Ras, or with H-Ras carrying the K-Ras C-terminal polybasic lysine domain
Nature of the assay: in vivo (cellular) Ras farnesyl transferase inhibitory activity, Rat2 cells transformed with H-Ras fused with polybasic lysine domain of K-Ras. Conditions: Rat2 cell line transformed with H-Ras substituted with polybasic lysine domain at C-terminus of K-Ras; concentration inhibiting 50% of farnesyl binding; read-out: K-Ras CIC50. In kind it is cell-based. Here is the method:
(§1) In the present experiment, Rat2 cell line which expresses C-Harvey-Ras protein having transforming activity and Rat2 cell line(Korean patent application No. 97-14409) which is transformed with fused protein of H-Ras substituted with polybasic lysine domain at C-terminus of K-Ras were used. The experiment was performed by the modified Declue's method(Declue. J. E. et al., Cancer Research, 1991, 51, 712). Hereinafter, the experimental method will be described in more detail.
(§2) 3×10^5 cells of transformed Rat2 fibroblast cell line were sprayed on 60 mm cell cultivation dish and cultivated for 48 hours in a cell incubator at 37° C. and after 50% or more of density was reached, it was treated with the test compounds. The compound according to the present invention dissolved in dimethylsulfoxide(DMSO) was used. 1% concentration of dimethylsulfoxide was used in both control and test groups. After 4 hours from the treatment with the compound, methionine labeled with 150 μCi of radioactive isotope [^35S] per 1 ml of medium was added and after cultivating for 20 hours, the cells were washed with physiological saline water. The cells were lysed using 1 ml of cold cell lysis buffer solution(50 mM of Sodium HEPES buffer solution containing 5 mM of magnesium chloride, 1 mM of DTT, 1% NP 40, 1 mM of EDTA, 1 mM of PMSF, 2 μM of leupeptin, 2 μM of pepstatin A and 2 μM of antipain) and the supernatant wherein the cells were lysed was obtained by high-velocity centrifugation of 12,000 g×5 minutes. The amount of radioisotope in the supernatant was measured and standardized to obtain a quantitative result in immunoprecipitation reaction and then, Y13-259, a monoclonal antiboby specifically binding to Ras protein(Furth, M. E. et al., J. Virol, 1982, 43, 294) was added and reacted for 15 hours at 4° C. Protein A(combined with goat anti-murine imunoglobulin antibody)-agarose suspension was added to the solution and reacted for 1 hour at 4° C. and then, to remove the unspecific binding product, immunoprecipitates were washed with a buffer solution (50 mM Tris chloride buffer solution containing 50 mM of sodium chloride, 0.5% of sodium dioxycholate, 0.5% of NP 40 and 0.1% of SDS). The precipitates were added to a buffer solution for electrophoresis and boiled and then, electrophoresis was performed using 13.5% of SDS polyacrylamide gel. After electrophoresis, the gel was fixed and dried. Then, the gel was exposed to X-ray film, developed and printed. From the result of the experiment, intensities of band of protein combined with or without farnesyl of Ras protein were measured, and the concentration of the test compound inhibiting 50% of farnesyl binding was defined as CIC50, an in vivo Ras farnesyl transferase inhibitory activity.

For assay [2], the target named is T2, Ras farnesyl transferase (Homo sapiens, UniProt P49354+P49356).
T2 construct: made in house
The assay is described as follows: in vitro inhibitory activity for Ras farnesyl transferase, H-Ras substrate. The following applies: recombinant Ras farnesyl transferase, H-Ras substrate, tritium-farnesylpyrophosphate, 30 minutes at 37° C.; read-out: H-Ras IC50. In kind it is biochemical. As for the experimental part: In the present experiment, Ras farnesyl transferase produced by genetic recombination techniques according to the improved Pompliano's method (Pompliano et al., Biochemistry, 1992, 31, 3800) was used, and Ras substrate(Ras-CVLS) protein described in Korean Patent Appln. No. 97-14409 was used after it has been purified according to the known method(see, Chung et al., Biochimica et Biophysica Acta, 1992, 278, 1129).
(§3) The enzyme reaction was performed in 50 μl of 50 mM Soduam HEPES buffer solution containing 25 mM of potassium chloride, 25 mM of magnesium chloride, 10 mM of DTT and 50 μM of zinc chloride. 1.5 μM of Ras substrate protein, 0.15 μM of tritium-farnesylpyrophosphate and 4.5 nM of farnesyl transferase were used.
(§4) More specifically, in the initial step, farnesyl transferase was added to the above buffer solution, reaction was maintained for 30 minutes at 37° C. and then the reaction was stopped by adding 1 ml of ethanol solution containing 1M HCl. The formed precipitates were adsorbed to GF/B filter using Hopper harvestor(Hopper #FH 225V) for filter-binding, washed with ethanol, and then radioactivity of the dried filter was measured using LKB β counter. Enzyme titer was measured in the unsaturated state of substrate where the concentrations of Ras substrate protein and farnesyl transferase have quantitative relationship. The compound according to the present invention dissolved in dimethyl sulfoxide(DMSO) was added to the reaction solution in an amount of less than 5% of the total reaction solution, and then the enzyme inhibitory activity thereof was measured. The enzyme inhibitory activity was represented by percentage of the amount of farnesyl incorporated into the Ras substrate protein in the presence of the test compound to that in the absence of the test compound. IC50 of the test compound was defined as the concentration at which 50% of the enzyme activity was inhibited.

The target in assay [3] is T1, Ras farnesyl transferase. Nature of the assay: in vivo (cellular) Ras farnesyl transferase inhibitory activity, Rat2 cells expressing C-Harvey-Ras. In kind it is cell-based. The following applies: Rat2 cell line expressing C-Harvey-Ras; concentration inhibiting 50% of farnesyl binding of Ras protein; read-out: H-Ras CIC50. As for the experimental part: as §1, §2
Assay [4] has as its target T2, Ras farnesyl transferase. The assay is described as follows: in vitro inhibitory activity for Ras farnesyl transferase, K-Ras substrate. In kind it is biochemical. The following applies: recombinant Ras farnesyl transferase, K-Ras substrate; read-out: K-Ras IC50. As for the experimental part: In the present experiment, Ras farnesyl transferase produced by genetic recombination techniques according to the improved Pompliano's method (Pompliano et al., Biochemistry, 1992, 31, 3800) was used, […] Appln. No. 97-14409 was used after it has been purified according to the known method(see, Chung et al., Biochimica et Biophysica Acta, 1992, 278, 1129).
as §3, §4

The structures appear in SMILES notation.

Regarding `COCCN(C)C(=O)c1cn(Cc2cncn2CC2CCN(C(=O)COc3ccccc3)CC2)cc1-c1cccc2ccccc12` [Compound 14, 3-[N-(2-Methoxyethyl)-N-methyl]carbamoyl-4-(naphthalen-1-yl)-1-[1-(1-phenoxyacetyl-piperidin-4-ylmethyl)-1H-imidazol-5-ylmethyl]-1H-pyrrole], the IC50 at Ras farnesyl transferase [1] was 1000 to 50000 nM; at Ras farnesyl transferase [2], 2.1 nM; at Ras farnesyl transferase [3], 10 to 100 nM; on Ras farnesyl transferase [4], 10 to 1000 nM.
On the same counts, the results for `COCCN(C)C(=O)c1cn(Cc2cncn2CC2CCN(C(=O)CCc3ccccc3)CC2)cc1-c1cccc2ccccc12` [Compound 15, 3-[N-(2-Methoxyethyl)-N-methyl]carbamoyl-4-(naphthalen-1-yl)-1-{1-[1-(2-phenylethylcarbonyl)-piperidin-4-ylmethyl]-1H-imidazol-5-ylmethyl}-1H-pyrrole] are 1000 to 50000 nM, 1 nM, 10 to 100 nM and 10 to 1000 nM.
On the same counts, the results for `COCCN(C)C(=O)c1cn(Cc2cncn2CC2CCN(C(=O)Cc3ccc(-c4ccccc4)cc3)CC2)cc1-c1cccc2ccccc12` [Compound 16, 1-{1-[1-(4-Biphenylacetyl)-piperidin-4-ylmethyl]-1H-imidazol-5-ylmethyl}-3-[N-(2-methoxyethyl)-N-methyl]carbamoyl-4-(naphthalen-1-yl)-1H-pyrrole] are 1000 to 50000 nM, 1 to 10 nM, 10 to 100 nM and 10 to 1000 nM.
The corresponding values for `COCCN(C)C(=O)c1cn(Cc2cncn2CC2CCN(C(=O)OC)CC2)cc1-c1cccc2ccccc12` [Compound 17, 1-[1-(1-Methoxycarbonyl-piperidin-4-ylmethyl)-1H-imidazol-5-ylmethyl]-3[N-(2-methoxyethyl)-N-methyl]carbamoyl-4-(naphthalen-1-yl)-1H-pyrrole] are 10000 to 100000 nM, 1 to 10 nM, 10 to 100 nM and 10 to 1000 nM.
In the case of `CCC(=O)N1CCC(Cn2cncc2Cn2cc(C(=O)N(C)CCOC)c(-c3cccc4ccccc34)c2)CC1` [Compound 18, 3-[N-(2-Methoxyethyl)-N-methyl]carbamoyl-4-(naphthalen-1-yl)-1-[1-(1-propionyl-piperidin-4-ylmethyl)-1H-imidazol-5-ylmethyl]-1H-pyrrole], the IC50 at Ras farnesyl transferase [1] is 1000 to 50000 nM; on Ras farnesyl transferase [2], 1 nM; at Ras farnesyl transferase [3], 10 to 100 nM; on Ras farnesyl transferase [4], 10 to 1000 nM.
`COCCN(C)C(=O)c1cn(Cc2cncn2CC2CCN(C(=O)OCc3cccc4ccccc34)CC2)cc1-c1cccc2ccccc12` [Compound 19, 3-[N-(2-Methoxyethyl)-N-methyl]carbamoyl-4-(naphthalen-1-yl)-1-{1-[1-(1-naphthalen-1-ylmethyloxycarbonyl)piperidin-4-ylmethyl]-1H-imidazol-5-ylmethyl}-1H-pyrrole]: the IC50 at Ras farnesyl transferase [1] was 1000 to 10000 nM; at Ras farnesyl transferase [2] it was 7 nM; on Ras farnesyl transferase [3], 10 nM; at Ras farnesyl transferase [4], 20 nM.
The corresponding values for `COCCN(C)C(=O)c1cn(Cc2cncn2CC2CCN(C(=O)OCc3ccc4ccccc4c3)CC2)cc1-c1cccc2ccccc12` [Compound 20] are 1000 to 10000 nM, 6 nM, 10 nM and 10 nM.
For `COCCN(C)C(=O)c1cn(Cc2cncn2CC2CCN(C(=O)OC/C=C(\C)CCC=C(C)C)CC2)cc1-c1cccc2ccccc12` [Compound 21], the IC50 at Ras farnesyl transferase [1] is 1000 to 10000 nM; on Ras farnesyl transferase [2], 10 to 100 nM; on Ras farnesyl transferase [3], 10 to 100 nM; on Ras farnesyl transferase [4] it was 50 nM.
With `COCCN(C)C(=O)c1cn(Cc2cncn2CC2CCN(C(=O)OCC=C(C)C)CC2)cc1-c1cccc2ccccc12` [Compound 22], the IC50 at Ras farnesyl transferase [1] was 1000 to 10000 nM; at Ras farnesyl transferase [2] it was 9 nM; on Ras farnesyl transferase [3], 10 to 100 nM; on Ras farnesyl transferase [4] it was 20 nM.
On the same counts, the results for `COCCN(C)C(=O)c1cn(Cc2cncn2CC2CCN(C(=O)OCCC(C)C)CC2)cc1-c1cccc2ccccc12` [Compound 23] are 1000 to 10000 nM, 8 nM, 10 to 100 nM and 20 nM.
On the same counts, the results for `COCCN(C)C(=O)c1cn(Cc2cncn2CC2CCN(C(=O)OCc3ccc(F)cc3)CC2)cc1-c1cccc2ccccc12` [Compound 24] are 1000 to 10000 nM, 6 nM, 10 to 100 nM and 15 nM.
The corresponding values for `COCCN(C)C(=O)c1cn(Cc2cncn2CC2CCN(C(=O)OC/C=C/c3ccccc3)CC2)cc1-c1cccc2ccccc12` [Compound 25] are 1000 to 10000 nM, 6 nM, less than 100 nM and 27 nM.
Turning to `COCCN(C)C(=O)c1cn(Cc2cncn2CC2CCN(C(=O)OCc3csc(C(C)C)n3)CC2)cc1-c1cccc2ccccc12` [Compound 26], the IC50 is 10000 to 50000 nM at Ras farnesyl transferase [1], 4 nM at Ras farnesyl transferase [2], 10 to 100 nM at Ras farnesyl transferase [3] and 10 to 100 nM on Ras farnesyl transferase [4].
In the case of `COCCN(C)C(=O)c1cn(Cc2cncn2CC2CCN(C(=O)c3ccc4ccccc4c3)CC2)cc1-c1cccc2ccccc12` [Compound 27, 3-[N-(2-Methoxyethyl)-N-methyl]carbamoyl-4-(naphthalen-1-yl)-1-{1-[1-(naphthalen-2-ylcarbonyl)piperidin-4-ylmethyl]-1H-imidazol-5-ylmethyl}-1H-pyrrole], the IC50 is 1000 to 10000 nM at Ras farnesyl transferase [1], 9 nM on Ras farnesyl transferase [2], 10 to 100 nM on Ras farnesyl transferase [3] and 15 nM at Ras farnesyl transferase [4].
On the same counts, the results for `COCCN(C)C(=O)c1cn(Cc2cncn2CC2CCN(C(=O)/C=C/c3ccccc3)CC2)cc1-c1cccc2ccccc12` [Compound 28] are 1000 to 10000 nM, 12 nM, 10 to 100 nM and 8 nM.
On the same counts, the results for `COCCN(C)C(=O)c1cn(Cc2cncn2CC2CCN(C(=O)c3csc(C(C)C)n3)CC2)cc1-c1cccc2ccccc12` [Compound 29] are 10000 to 50000 nM, 2.5 nM, 10 to 100 nM and 10 to 100 nM.

The values above are taken from US6436960B1, “Farnesyl transferase inhibitors having a piperidine structure and process for preparation thereof” (LG Chemical Ltd., priority 1998, dated 2002).
